Experimental data reported in patent publication US8334302B2, “Synthesis and anti-proliferative effect of substituted imidazo[4,5-b]pyridine compounds” (Spelman College, priority 2008, dated 2012).

Assays:
[1] = test system: PC-3 cells; settings: micromolar concentrations; cited from earlier work
[2] = test system: PC-3 human prostate cancer cells; test: Inhibition of cell proliferation in PC-3 cells, DNA assay (Hoechst 33258); assay type: cell-based; settings: for IC50: Homo sapiens, inhibition of PC-3 cells, read-out: PC3 IC50
Description: Cell Culture and Drug Treatment. PC-3 human prostate cancer cells were seeded in duplicate 96 well tissue culture plates at 500 cells/well in 80-μL Dulbecco's […] (DMEM) supplemented with 5% fetal bovine serum (FBS) and nonessential amino acids and 1% equimolar mixture of streptomycin-penicllin. The flasks were incubated in a humidified 95% air/5% CO2 atmosphere. The cells were grown for at least 24 hours to ensure that they were in the early log phase of growth. Cells were then treated with 20-μL drug solutions (stock 10 mM drug solution in DMSO was diluted in DMEM containing 5% FBS such that final DMSO concentration is less than 1%) of appropriate final concentration by serial dilution. Untreated control cells received 20-μL DMEM containing 5% FBS. Six wells of each plate received the same drug concentration. Thus, each data point and error bars are an average and standard deviation of readings from 12 wells treated with identical drug concentration.
DNA Assay. After appropriate time of incubation, DNA assay was performed. For DNA assay, each culture plate was washed with 25% PBS and incubated in deionized double distilled water for at least one hour at room temperature. Plates were frozen at −70° C. and thawed/equilibrated to room temperature. Hoechst 33258 DNA binding dye was then added to each well in 200-μL of high salt TNE buffer (10 mM Tris, 1 mM EDTA, 2 M NaCl [pH 7.4]) at a final concentration of 6.7-μg/mL. After further incubation at room temperature for 2 hours under protection from light, culture plates were scanned on the CytoFluor 2350™ scanner using the 360/460 nm filter excitation and emission set. Readings from all plates were normalized to the fluorescence of control untreated cells and all data were expressed as the percent control.

[3] = biological target: T1, CDK1/cyclinB(h) (Homo sapiens, UniProt P06493); test: Kinase assay, Millipore KinaseProfiler, radiometric; assay type: biochemical; settings: CDK1/cyclinB(h) activity in presence of compound
T1 construct: purchased Millipore (KinaseProfiler Service)
Description: (§1) Kinase Assays. Kinase assays were conducted by Millipore's KinaseProfiler Service to determine the amount of ATP phosphorylation that occurs in the presence of a benzimidazole molecule. Kinases assayed included IKKβ, CK2, CDK1/cyclinB, GSK3β, and p70S6K. The desired kinase was treated with the benzimidazole compound The reaction were initiated by the addition of the MgATP mix. After incubation for 40 minutes at room temperature, the reaction is stopped by the addition of 3% phosphoric acid solution. 10 μL of the reaction was then spotted onto a P30 filtermat and washed three times for 5 minutes in 75 mM phosphoric acid and once in methanol prior to drying and scintillation counting. The kinase activity was measured radiometrically to determine the amount of ATP phosphorylation produced. All assays were done in triplicate.

[4] = biological target: T2, p70S6K(h) (Homo sapiens, UniProt P23443); test: as above; assay type: biochemical; settings: p70S6K(h) activity in presence of compound
T2 construct: purchased Millipore (KinaseProfiler Service)
Description: as §1

[5] = biological target: T3, GSK3β(h) (Homo sapiens, UniProt P49841); test: as above; assay type: biochemical; settings: GSK3β(h) activity in presence of compound
T3 construct: purchased Millipore (KinaseProfiler Service)
Description: as §1

[6] = biological target: T4, IKKβ(h) (Homo sapiens, UniProt O14920); test: as above; assay type: biochemical; settings: IKKβ(h) activity in presence of compound
T4 construct: purchased Millipore (KinaseProfiler Service)
T4 sequence (O14920 1-756): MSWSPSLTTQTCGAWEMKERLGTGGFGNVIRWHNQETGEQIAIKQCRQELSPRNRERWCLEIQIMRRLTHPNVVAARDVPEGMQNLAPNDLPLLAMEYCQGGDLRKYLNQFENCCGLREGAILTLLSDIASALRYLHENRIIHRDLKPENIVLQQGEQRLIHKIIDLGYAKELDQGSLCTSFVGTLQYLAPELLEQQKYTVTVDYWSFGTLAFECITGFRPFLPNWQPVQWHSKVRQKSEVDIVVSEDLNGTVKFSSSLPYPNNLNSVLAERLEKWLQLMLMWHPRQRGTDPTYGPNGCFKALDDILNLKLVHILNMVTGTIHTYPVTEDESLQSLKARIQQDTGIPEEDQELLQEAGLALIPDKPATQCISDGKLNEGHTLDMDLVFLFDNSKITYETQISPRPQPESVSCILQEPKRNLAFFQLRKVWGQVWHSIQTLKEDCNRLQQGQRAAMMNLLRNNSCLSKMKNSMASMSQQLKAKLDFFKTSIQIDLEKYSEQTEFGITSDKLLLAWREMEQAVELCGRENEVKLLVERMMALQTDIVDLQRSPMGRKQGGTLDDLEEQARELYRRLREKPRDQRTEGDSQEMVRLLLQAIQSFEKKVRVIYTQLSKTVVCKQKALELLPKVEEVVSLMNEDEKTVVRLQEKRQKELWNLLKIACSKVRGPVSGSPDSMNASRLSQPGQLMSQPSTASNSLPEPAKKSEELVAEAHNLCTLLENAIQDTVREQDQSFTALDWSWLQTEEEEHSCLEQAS
Description: as §1

[7] = biological target: T5, CK2(h) (Homo sapiens, UniProt P68400); test: as above; assay type: biochemical; settings: CK2(h) activity in presence of compound
T5 construct: purchased Millipore (KinaseProfiler Service)
Description: as §1

[8] = biological target: T6, PDK1(h) (Homo sapiens, UniProt O15530); test: as above; assay type: biochemical; settings: PDK1(h) activity in presence of compound
T6 construct: purchased Millipore (KinaseProfiler Service)
T6 sequence (O15530 1-556): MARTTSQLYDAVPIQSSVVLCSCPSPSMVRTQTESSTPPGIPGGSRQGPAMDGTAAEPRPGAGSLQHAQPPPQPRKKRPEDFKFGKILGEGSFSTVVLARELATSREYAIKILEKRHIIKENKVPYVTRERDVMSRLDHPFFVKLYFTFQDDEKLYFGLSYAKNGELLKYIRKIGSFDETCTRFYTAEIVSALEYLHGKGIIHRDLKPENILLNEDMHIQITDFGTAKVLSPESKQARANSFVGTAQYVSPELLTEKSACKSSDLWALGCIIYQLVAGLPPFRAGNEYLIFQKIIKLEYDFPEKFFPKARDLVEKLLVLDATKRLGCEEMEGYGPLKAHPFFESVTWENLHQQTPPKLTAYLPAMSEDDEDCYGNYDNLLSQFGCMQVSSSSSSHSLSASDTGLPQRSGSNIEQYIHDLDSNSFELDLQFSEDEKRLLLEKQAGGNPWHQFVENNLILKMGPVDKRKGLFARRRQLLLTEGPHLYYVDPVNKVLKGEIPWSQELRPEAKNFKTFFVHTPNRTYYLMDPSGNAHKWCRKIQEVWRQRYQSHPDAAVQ

T1 sequence (P06493 whole entry): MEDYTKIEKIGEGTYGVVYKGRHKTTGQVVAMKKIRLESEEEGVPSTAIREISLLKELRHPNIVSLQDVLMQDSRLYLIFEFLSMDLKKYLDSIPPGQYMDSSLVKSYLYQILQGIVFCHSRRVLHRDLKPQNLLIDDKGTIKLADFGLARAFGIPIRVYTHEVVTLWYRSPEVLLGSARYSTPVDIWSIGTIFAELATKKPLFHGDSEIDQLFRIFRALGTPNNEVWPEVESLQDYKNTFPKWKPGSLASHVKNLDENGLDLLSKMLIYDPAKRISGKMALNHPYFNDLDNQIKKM
T1 sequence (P14635 whole entry partner): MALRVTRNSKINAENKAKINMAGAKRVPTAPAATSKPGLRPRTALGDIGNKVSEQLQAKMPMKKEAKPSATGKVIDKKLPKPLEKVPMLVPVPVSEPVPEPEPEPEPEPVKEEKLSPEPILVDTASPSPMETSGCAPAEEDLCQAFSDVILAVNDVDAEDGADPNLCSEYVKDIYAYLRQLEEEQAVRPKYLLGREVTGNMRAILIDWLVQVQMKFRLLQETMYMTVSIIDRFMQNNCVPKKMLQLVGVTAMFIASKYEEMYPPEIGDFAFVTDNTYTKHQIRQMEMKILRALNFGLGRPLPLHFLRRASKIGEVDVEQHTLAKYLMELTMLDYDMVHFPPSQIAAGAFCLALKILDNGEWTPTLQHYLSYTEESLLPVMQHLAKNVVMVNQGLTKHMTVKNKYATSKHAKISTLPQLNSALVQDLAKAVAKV
T3 sequence (P49841 whole entry): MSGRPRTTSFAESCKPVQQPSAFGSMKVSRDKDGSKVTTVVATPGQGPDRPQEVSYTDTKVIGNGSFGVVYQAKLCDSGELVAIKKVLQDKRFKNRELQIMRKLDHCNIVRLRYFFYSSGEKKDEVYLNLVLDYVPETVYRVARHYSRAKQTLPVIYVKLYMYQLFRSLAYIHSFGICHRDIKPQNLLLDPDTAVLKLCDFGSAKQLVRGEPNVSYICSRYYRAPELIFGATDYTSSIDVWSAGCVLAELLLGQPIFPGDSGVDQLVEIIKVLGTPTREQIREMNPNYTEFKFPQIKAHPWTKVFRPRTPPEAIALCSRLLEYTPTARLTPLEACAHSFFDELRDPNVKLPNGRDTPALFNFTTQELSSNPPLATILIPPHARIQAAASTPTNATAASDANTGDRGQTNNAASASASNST
T5 sequence (P68400 whole entry): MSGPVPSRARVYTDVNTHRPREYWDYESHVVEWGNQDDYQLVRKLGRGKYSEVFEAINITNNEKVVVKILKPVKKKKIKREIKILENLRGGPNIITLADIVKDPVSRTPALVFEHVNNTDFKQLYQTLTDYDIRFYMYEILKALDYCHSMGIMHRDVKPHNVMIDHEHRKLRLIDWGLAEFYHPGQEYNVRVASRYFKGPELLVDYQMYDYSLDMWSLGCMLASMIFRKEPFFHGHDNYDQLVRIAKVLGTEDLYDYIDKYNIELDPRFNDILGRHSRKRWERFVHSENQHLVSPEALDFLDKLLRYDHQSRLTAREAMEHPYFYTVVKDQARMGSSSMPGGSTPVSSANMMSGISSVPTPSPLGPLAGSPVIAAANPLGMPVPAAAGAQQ
T5 sequence (P67870 whole entry partner): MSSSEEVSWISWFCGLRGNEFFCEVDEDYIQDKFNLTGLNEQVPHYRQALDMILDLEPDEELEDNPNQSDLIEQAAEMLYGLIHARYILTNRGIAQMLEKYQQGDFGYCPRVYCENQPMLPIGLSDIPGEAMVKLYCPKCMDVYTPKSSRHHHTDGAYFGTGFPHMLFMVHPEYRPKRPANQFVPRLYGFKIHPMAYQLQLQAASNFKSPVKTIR
T2 sequence (P23443 whole entry): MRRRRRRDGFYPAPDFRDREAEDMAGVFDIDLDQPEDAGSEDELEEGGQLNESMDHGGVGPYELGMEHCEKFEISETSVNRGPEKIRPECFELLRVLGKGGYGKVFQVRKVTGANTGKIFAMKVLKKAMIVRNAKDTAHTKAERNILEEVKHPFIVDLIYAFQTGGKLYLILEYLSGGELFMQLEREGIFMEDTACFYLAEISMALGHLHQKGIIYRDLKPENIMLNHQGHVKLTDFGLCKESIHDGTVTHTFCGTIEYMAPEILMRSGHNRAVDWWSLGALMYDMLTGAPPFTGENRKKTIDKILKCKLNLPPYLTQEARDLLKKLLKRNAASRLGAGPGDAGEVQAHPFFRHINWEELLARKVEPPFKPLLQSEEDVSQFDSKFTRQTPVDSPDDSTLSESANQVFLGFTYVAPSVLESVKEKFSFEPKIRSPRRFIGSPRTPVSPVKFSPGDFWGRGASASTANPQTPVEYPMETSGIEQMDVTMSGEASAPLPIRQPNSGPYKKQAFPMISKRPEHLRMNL

Row | Structure (SMILES) | IC50 [2] [µM] | % Activity [3] [%] | % Activity [4] [%] | % Activity [5] [%] | % Activity [6] [%] | % Activity [7] [%] | also measured
1 | N=C(N)Nc1ccc(-n2nc(C(F)(F)F)cc2-c2ccc3c(ccc4ccccc43)c2)cc1 [Compound 202, OSU-03013] | 3 | – | – | – | – | – | concentration diminishing cell proliferation, relative to celecoxib [1]: thirty-fold lower
2 | NS(=O)(=O)c1ccc(-n2nc(C(F)(F)F)cc2-c2ccc3ccccc3c2)cc1 [Compound 205] | 10 | – | – | – | – | – | –
3 | FC(F)(F)c1cc(-c2ccc3c(ccc4ccccc43)c2)n(-c2ccc(-c3nnn[nH]3)cc2)n1 [Compound 203] | 32 | – | – | – | – | – | –
4 | Cc1ccc(-n2c(-c3ccc(S(N)(=O)=O)cc3)nc3ccccc32)cc1 [Compound 206, 4-[1-(4-methylphenyl)-1H-benzo[d]imidazol-2-yl]benzenesulfonamide] | 24 | 7 | 33 | 72 | 86 | 92 | antiproliferative effect in PC-3 cells (in words) ([2]; PC-3 human prostate cancer cells, DNA assay, FIG. 1): slightly more effective
5 | CC(C)(C)c1ccc(-n2c(-c3ccc(S(N)(=O)=O)cc3)nc3ccccc32)cc1 [Compound 207, 4-(1-(4-tert-butylphenyl)-1H-benzo[d]imidazol-2-yl)benzenesulfonamide] | 20 | – | – | – | – | – | –
6 | NS(=O)(=O)c1ccc(-c2nc3ccccc3n2-c2ccc(-c3ccccc3)cc2)cc1 [Compound 211] | – | 11 | 17 | 13 | 71 | 99 | –
7 | Cc1ccc(-c2cc(C(F)(F)F)nn2-c2ccc(S(N)(=O)=O)cc2)cc1 [Compound 201, Celecoxib] | 30 | – | – | – | – | – | –
8 | NS(=O)(=O)c1ccc(-c2nc3ccccc3n2-c2ccc(Oc3ccccc3)cc2)cc1 [Compound 210] | – | 16 | 18 | 7 | 72 | 99 | –
9 | NS(=O)(=O)c1ccc(-c2nc3ccccc3n2-c2ccc(Cc3ccccc3)cc2)cc1 [Compound 209, 4-(1-(4-benzylphenyl)-1H-benzo[d]imidazol-2-yl)benzenesulfonamide] | – | 36 | 12 | 5 | 25 | 22 | % Activity [8]: 30%
10 | CC(C)(C)c1ccc(-c2cc(C(F)(F)F)nn2-c2ccc(S(N)(=O)=O)cc2)cc1 [Compound 204] | 18 | – | – | – | – | – | –
11 | NS(=O)(=O)c1ccc(-c2nc3ccccc3n2-c2ccc3ccccc3c2)cc1 [Compound 208] | 10 | – | – | – | – | – | –
